Measurements reported in patent US5665700A, “Pharmaceutical formulations” (Skua Investments Limited, priority 1994, dated 1997).

Assays:
[1] = in vivo; cited from earlier work
[2] = Oral EPO study in normal male volunteers: plasma EPO levels by radioimmunoassay; type: in vivo, human; conditions: Study Day 1, 10 IU/kg intravenous infusion
Protocol: (§1) Eight healthy, normal male volunteers participated in this study. After overnight fasting, on Study Day 1 the subjects received medication as follows:
(§2) Blood samples were collected at time 0, 0.5, 1, 2, 3, 4, 6, 10 and 14 hours after the medication; reticulocyte counts (%) were made and plasma EPO levels were measured by radioimmunoassay.
(§3) On Day 2 and Day 3, each subject was given the assigned coded study medications at 08:00 a.m., 14:00 p.m. and 22:00 p.m. and, after an overnight fast, on Study Day 4, each subject was examined again after having been given the study medications as above.

reticulocyte counts = assay: Oral EPO study in normal male volunteers: reticulocyte counts; type: in vivo, human; conditions: Study Day 4, 10 IU/Kg intravenous infusion
Protocol: as §1, §2, §3

Substance	LD50 [1] [mg/kg]	plasma RIA-measured EPO levels [2]	Reticulocyte counts (reticulocyte counts)
Sorbitan trioleate	> 40000		
POE(2) cetyl ether	22000		
POE(2) oleyl ether	25000		
POE(5) sorbitan monooleate	> 37000		
Sorbitan monopalmitate	> 16000		
POE(2) stearyl ether	> 25000		
POE(23) lauryl ether	9000		
Sorbitan monostearate	31000		
POE(4) sorbitan monostearate	> 40000		
Sorbitan monolaurate	41000		
Sorbitan tristearate	> 16000		
POE(4) lauryl ether	9000		
Sorbitan monooleate	> 40000		
Erythropoietin [EPO]		markedly increased	increased
